As a reminder, the inhibition is the change of the read-out against control, counted positive when it falls. By IC50 is commonly meant the concentration needed to halve the response being measured. A lower IC50 goes with greater potency.

This is an account of results in ChEMBL document CHEMBL5463728, “Data for DCP probe BAY-6096” (2023).

The target of experiment [1] is Vasopressin V1a receptor (Homo sapiens) (UniProt P37288). The following applies: Compound concentration 10.0 uM.
The target in experiment [2] is Glutamate receptor 2 (Homo sapiens) (UniProt P42262). Conditions: Rattus norvegicus; Compound concentration 10.0 uM; call rule not given here.
The target of experiment [3] is Alpha-2A adrenergic receptor (Homo sapiens, UniProt P08913). In words: Adrenoceptor reporter cell assay (ADRA2A). The format is functional.
The target in experiment [4] is Histamine H3 receptor (Homo sapiens) (UniProt Q9Y5N1). The following applies: Compound concentration 10.0 uM.
Experiment [5] is filed under the species Homo sapiens. In words: Inhibition of Nicotinic Acetylcholine at compound concentration of 10.0 uM in the Eurofins-Panlabs radioligand binding assay (Eurofins_assay_258590). It is filed as protein-complex assay. The following applies: Compound concentration 10.0 uM.
The target of experiment [6] is Cannabinoid receptor 2 (Homo sapiens) (UniProt P34972). Conditions: Compound concentration 10.0 uM.
Experiment [7] has as its target Muscarinic acetylcholine receptor M5 (Homo sapiens) (UniProt P08912). Conditions: Compound concentration 10.0 uM.
For experiment [8], the target named is D(3) dopamine receptor (Homo sapiens) (UniProt P35462). The following applies: Compound concentration 10.0 uM.
Experiment [9] concerns the target D(4) dopamine receptor (Homo sapiens) (UniProt P21917). Conditions: Compound concentration 10.0 uM.
The target in experiment [10] is 5-hydroxytryptamine receptor 1B (Homo sapiens) (UniProt P28222). Conditions: Compound concentration 10.0 uM.
The target of experiment [11] is Alpha-1D adrenergic receptor (Homo sapiens) (UniProt P25100). Conditions: Compound concentration 10.0 uM.
The target of experiment [12] is Alpha-1A adrenergic receptor (Homo sapiens, UniProt P35348). Nature of the experiment: Adrenoceptor reporter cell assay (ADRA1A). The format is functional.
Experiment [13] concerns the target Kappa-type opioid receptor (Homo sapiens) (UniProt P41145). Conditions: Compound concentration 10.0 uM.
Experiment [14] addresses 5-hydroxytryptamine receptor 5A (Homo sapiens) (UniProt P47898). The following applies: Compound concentration 10.0 uM.
In experiment [15] the target is GABA-A receptor; anion channel (Rattus norvegicus) (UniProt O09028+P15431+P18506+P18508+P19969+P20236+P23574+P23576+P28471+P28473+P30191+P62813+P63079+P63138+Q91ZM7+Q9ES14). Conditions: Compound concentration 10.0 uM.
Experiment [16] has as its target 5-hydroxytryptamine receptor 1D (Homo sapiens) (UniProt P28221). Conditions: Compound concentration 10.0 uM.
Experiment [17] has as its target Type-1 angiotensin II receptor (Homo sapiens) (UniProt P30556). The following applies: Compound concentration 10.0 uM.
The target in experiment [18] is 5-hydroxytryptamine receptor 2A (Homo sapiens) (UniProt P28223). The following applies: Compound concentration 10.0 uM.
In experiment [19] the target is T1, D(2) dopamine receptor (Homo sapiens, UniProt P14416). Conditions: Compound concentration 10.0 uM.
Experiment [20] addresses Alpha-2A adrenergic receptor (Homo sapiens) (UniProt P08913). The following applies: Compound concentration 10.0 uM.
The target in experiment [21] is 5-hydroxytryptamine receptor 2A (Homo sapiens) (UniProt P28223). Conditions: Compound concentration 10.0 uM. The source holds these as a separate data set.
The target in experiment [22] is T2, 5-hydroxytryptamine receptor 2C (Homo sapiens) (UniProt P28335).
T2 sequence (whole entry): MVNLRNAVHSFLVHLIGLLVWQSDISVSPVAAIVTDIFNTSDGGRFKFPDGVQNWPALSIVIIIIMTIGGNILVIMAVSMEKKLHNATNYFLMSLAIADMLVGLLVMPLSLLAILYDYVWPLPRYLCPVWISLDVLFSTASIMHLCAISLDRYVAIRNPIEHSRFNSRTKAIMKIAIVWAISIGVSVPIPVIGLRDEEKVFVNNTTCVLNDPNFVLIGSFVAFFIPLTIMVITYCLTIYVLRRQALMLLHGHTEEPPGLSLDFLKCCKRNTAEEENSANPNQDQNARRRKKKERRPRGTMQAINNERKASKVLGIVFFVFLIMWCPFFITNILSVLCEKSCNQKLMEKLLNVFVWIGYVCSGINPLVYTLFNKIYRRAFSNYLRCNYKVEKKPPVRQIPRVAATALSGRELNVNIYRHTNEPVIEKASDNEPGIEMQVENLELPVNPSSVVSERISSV
Conditions: Compound concentration 10.0 uM.

Experiment [23] deals with Histamine H1 receptor (Homo sapiens) (UniProt P35367). Conditions: Compound concentration 10.0 uM.
Experiment [24] has as its target Kappa-type opioid receptor (Homo sapiens) (UniProt P41145). The following applies: Compound concentration 10.0 uM. This is another data set of the same source.
Experiment [25] addresses Sodium-dependent noradrenaline transporter (Homo sapiens) (UniProt P23975). Conditions: Compound concentration 10.0 uM.
Experiment [26] has as its target T1, D(2) dopamine receptor. The following applies: Compound concentration 10.0 uM. The source holds these as a separate data set.
The target of experiment [27] is Prostaglandin G/H synthase 1 (Homo sapiens) (UniProt P23219). Nature of the experiment: Inhibition of Cyclooxygenase COX-1 at compound concentration of 10.0 uM in the Eurofins-Panlabs enzyme assay (Eurofins_assay_116020). The following applies: Compound concentration 10.0 uM.
The target in experiment [28] is Type-2 angiotensin II receptor (Homo sapiens) (UniProt P50052). The following applies: Compound concentration 10.0 uM.
Experiment [29] has as its target Sodium-dependent serotonin transporter (Homo sapiens) (UniProt P31645). Conditions: Compound concentration 10.0 uM.
In experiment [30] the target is 5-hydroxytryptamine receptor 2B (Homo sapiens) (UniProt P41595). The following applies: Compound concentration 10.0 uM.
Experiment [31] has as its target T3, Muscarinic acetylcholine receptor M4 (Homo sapiens) (UniProt P08173).
T3 sequence (whole entry): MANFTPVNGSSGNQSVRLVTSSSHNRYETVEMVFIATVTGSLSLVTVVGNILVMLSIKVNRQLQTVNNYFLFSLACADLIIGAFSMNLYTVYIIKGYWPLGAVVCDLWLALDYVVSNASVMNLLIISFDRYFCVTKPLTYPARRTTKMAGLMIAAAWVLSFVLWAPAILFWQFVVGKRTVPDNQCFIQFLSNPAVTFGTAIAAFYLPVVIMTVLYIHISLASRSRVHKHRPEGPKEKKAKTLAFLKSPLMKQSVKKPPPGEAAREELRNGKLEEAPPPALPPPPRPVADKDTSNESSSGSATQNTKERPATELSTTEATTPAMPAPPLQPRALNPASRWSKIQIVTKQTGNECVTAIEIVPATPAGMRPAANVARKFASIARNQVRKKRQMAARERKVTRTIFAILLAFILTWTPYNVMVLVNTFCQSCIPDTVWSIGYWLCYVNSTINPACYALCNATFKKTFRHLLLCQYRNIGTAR
The following applies: Compound concentration 10.0 uM.

Experiment [32] addresses Alpha-2B adrenergic receptor (Canis lupus familiaris, UniProt Q2MDQ0). Nature of the experiment: Cell based assay dog (ADRA2B). The format is functional.

Sequence of Kappa-type opioid receptor (Homo sapiens) (P41145 whole entry): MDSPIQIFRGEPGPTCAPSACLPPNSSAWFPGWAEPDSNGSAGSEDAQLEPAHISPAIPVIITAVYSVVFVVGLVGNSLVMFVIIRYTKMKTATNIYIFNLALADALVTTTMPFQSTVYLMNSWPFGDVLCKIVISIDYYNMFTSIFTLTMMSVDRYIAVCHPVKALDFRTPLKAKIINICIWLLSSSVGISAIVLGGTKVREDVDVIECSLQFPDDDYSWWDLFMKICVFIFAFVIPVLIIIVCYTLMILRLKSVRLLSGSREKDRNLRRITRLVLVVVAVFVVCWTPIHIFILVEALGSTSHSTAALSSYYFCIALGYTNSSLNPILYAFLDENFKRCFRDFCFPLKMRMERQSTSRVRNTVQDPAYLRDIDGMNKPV
Sequence of 5-hydroxytryptamine receptor 5A (Homo sapiens) (P47898 whole entry): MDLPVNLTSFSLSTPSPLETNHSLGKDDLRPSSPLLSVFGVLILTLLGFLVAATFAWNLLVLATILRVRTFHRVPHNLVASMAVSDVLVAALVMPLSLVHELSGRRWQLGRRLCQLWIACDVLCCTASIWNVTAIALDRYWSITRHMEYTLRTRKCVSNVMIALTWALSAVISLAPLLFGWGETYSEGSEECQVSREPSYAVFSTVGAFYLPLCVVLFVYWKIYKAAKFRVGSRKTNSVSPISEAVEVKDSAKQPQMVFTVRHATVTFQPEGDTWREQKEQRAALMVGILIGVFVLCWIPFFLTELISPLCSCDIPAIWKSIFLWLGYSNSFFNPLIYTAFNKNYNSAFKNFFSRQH
Sequence of 5-hydroxytryptamine receptor 1D (Homo sapiens) (P28221 whole entry): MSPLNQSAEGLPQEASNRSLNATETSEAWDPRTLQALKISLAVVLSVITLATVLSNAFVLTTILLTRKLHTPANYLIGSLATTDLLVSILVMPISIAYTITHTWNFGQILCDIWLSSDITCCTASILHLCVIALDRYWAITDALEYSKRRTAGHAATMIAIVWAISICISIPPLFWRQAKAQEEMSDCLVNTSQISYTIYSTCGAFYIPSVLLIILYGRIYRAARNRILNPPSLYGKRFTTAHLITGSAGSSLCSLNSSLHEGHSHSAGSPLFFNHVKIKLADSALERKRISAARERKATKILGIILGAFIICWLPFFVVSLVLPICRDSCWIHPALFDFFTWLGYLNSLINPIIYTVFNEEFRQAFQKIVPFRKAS
Sequence of Sodium-dependent serotonin transporter (Homo sapiens) (P31645 whole entry, looked up): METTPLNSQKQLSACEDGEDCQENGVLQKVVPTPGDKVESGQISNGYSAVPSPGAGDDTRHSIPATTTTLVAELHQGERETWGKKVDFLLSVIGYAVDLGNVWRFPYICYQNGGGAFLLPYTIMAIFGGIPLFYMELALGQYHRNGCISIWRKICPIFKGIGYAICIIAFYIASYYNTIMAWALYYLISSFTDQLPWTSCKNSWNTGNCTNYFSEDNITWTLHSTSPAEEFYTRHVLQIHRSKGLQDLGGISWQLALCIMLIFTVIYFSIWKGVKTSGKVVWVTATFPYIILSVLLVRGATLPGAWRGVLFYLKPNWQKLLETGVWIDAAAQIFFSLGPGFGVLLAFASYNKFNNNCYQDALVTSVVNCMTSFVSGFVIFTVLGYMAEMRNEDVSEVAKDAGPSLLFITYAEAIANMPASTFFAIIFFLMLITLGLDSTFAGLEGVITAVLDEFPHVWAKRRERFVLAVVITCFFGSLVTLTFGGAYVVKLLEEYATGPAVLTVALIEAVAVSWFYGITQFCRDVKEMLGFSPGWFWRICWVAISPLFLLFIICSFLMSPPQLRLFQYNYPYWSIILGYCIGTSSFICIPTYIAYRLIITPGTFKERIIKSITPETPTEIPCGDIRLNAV
Sequence of D(4) dopamine receptor (Homo sapiens) (P21917 whole entry): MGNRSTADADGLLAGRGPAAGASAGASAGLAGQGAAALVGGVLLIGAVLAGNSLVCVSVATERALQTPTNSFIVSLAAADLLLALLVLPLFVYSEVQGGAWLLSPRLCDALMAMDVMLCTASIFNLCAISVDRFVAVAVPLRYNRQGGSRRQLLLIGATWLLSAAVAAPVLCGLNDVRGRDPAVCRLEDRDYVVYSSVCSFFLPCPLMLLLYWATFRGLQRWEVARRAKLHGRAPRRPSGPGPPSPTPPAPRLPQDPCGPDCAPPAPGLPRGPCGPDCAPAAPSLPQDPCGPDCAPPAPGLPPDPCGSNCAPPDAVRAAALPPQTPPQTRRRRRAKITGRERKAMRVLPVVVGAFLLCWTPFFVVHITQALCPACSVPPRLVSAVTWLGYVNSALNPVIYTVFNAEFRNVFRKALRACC
Sequence of Alpha-2A adrenergic receptor (Homo sapiens) (P08913 whole entry): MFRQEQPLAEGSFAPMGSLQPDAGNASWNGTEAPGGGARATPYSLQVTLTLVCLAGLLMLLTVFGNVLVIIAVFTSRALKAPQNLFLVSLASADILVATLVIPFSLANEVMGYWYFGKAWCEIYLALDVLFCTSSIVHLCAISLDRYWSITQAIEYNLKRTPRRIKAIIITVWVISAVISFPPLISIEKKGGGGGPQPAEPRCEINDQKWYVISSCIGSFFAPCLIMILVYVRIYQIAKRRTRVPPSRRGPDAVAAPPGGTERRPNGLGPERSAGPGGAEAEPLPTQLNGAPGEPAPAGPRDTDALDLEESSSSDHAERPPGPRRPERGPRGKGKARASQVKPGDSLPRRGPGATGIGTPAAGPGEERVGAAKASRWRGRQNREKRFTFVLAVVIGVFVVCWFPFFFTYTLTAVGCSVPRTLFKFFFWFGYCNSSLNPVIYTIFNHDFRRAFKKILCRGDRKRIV
Sequence of 5-hydroxytryptamine receptor 2B (Homo sapiens) (P41595 whole entry): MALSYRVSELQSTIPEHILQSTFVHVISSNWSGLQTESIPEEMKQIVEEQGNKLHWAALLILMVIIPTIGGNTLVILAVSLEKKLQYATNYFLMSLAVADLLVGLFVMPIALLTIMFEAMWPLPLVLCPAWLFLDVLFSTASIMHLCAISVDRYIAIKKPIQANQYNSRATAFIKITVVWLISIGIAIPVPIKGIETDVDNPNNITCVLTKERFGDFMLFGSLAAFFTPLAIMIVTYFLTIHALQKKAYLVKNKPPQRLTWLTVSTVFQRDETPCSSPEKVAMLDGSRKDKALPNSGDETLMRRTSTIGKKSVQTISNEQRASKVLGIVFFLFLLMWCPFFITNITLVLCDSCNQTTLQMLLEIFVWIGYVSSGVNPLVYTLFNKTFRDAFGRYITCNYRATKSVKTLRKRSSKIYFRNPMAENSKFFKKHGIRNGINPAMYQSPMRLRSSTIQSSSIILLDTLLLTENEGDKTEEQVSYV
T1 sequence (P14416 whole entry): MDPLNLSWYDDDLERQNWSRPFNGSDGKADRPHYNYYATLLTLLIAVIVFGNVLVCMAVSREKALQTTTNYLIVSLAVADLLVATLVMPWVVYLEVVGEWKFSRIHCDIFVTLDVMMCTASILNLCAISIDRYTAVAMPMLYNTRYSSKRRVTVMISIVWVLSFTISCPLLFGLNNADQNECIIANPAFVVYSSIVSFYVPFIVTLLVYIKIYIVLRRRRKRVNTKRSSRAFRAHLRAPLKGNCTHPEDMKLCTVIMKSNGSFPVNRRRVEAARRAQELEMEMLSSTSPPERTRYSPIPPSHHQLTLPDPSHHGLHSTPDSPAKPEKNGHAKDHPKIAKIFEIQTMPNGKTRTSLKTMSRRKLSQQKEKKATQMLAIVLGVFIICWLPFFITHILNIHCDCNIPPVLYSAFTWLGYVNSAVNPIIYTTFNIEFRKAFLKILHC
Sequence of 5-hydroxytryptamine receptor 2A (Homo sapiens) (P28223 whole entry): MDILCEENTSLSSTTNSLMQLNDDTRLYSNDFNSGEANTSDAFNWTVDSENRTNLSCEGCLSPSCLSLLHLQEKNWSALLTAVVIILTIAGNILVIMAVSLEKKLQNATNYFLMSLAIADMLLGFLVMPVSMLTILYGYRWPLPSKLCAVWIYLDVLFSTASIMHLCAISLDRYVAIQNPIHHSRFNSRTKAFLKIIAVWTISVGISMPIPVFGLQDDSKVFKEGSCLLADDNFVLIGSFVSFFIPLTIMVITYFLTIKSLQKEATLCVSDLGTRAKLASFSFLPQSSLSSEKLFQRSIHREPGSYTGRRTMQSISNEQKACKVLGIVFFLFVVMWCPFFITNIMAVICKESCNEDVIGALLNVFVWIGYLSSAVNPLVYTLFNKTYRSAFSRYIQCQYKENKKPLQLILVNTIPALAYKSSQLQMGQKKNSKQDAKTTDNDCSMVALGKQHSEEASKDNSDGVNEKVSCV
Sequence of Alpha-1D adrenergic receptor (Homo sapiens) (P25100 whole entry): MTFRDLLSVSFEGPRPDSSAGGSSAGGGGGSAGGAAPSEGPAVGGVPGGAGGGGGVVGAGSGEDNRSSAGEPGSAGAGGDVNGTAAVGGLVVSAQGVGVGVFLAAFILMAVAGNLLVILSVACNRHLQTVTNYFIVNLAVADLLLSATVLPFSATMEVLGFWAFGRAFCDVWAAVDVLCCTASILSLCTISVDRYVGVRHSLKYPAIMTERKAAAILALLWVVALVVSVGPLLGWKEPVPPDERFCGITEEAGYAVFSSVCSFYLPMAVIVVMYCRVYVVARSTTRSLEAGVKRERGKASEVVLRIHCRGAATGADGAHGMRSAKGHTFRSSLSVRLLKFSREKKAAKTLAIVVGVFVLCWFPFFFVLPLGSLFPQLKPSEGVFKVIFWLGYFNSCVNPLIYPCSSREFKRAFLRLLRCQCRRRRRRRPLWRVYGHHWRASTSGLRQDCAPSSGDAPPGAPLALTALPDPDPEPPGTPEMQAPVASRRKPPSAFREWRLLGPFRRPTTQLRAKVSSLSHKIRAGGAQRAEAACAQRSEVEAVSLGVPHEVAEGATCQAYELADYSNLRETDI
Sequence of Alpha-2A adrenergic receptor (P08913 whole entry): as the sequence (P08913 whole entry) above

`CNc1cc[n+](CCNC(=O)c2ccn3c(-c4c(C)noc4C)cnc3c2)cc1`: the inhibition in experiment [1] is -2.3%; in [2], -1.1%; in experiment [4] it was 9.04%; in experiment [5] it was 9.4%; in [6], -3.8%; in experiment [7] it was -5%. In addition, the inhibition in [8] is -4.7%; in experiment [9], 11.3%; in experiment [10] it was 9.81%; in experiment [11], 1.62%; in [13], 0.5%; in experiment [14] it was 3.22%. For the same molecule, the inhibition in [15] was -3.7%; in [16] it was 19.5%; in [17], 5%; in [18], 1%; in [19], -5.2%; in experiment [20], 49.5%. In addition, the inhibition in experiment [21] was 17%; in experiment [22], 0.5%; in experiment [23], 0.5%; in experiment [24], 32.3%; in experiment [25], 2.7%; in experiment [26], 10.6%. For the same molecule, the inhibition in experiment [27] was -6.3%; in experiment [28], 4.1%; in experiment [29], 7.14%; in experiment [30], 4.13%; in experiment [31] it was -6.15%. Also, the half-inhibitory concentration (IC50) is on record as 10 µM (not active) in [3] and 5.52 µM (not active) in [12].
`Cc1noc(C)c1-c1cnc2cc(C(=O)NCCC[n+]3ccc(N(C)C)cc3)ccn12`: the 50% inhibitory concentration (IC50) in [3] is > 10 µM (not active); in experiment [32], 10 µM (not active); in experiment [12], > 10 µM (not active). Also, the inhibition in experiment [4] was 36%; in experiment [7], -1.12%; in experiment [9] it was 3.03%; in experiment [10], -0.88%; in experiment [11], 0.59%; in experiment [14], -2.29%. For the same molecule, the inhibition is 24.2% in [16]; 16.1% in [20]; -4.21% in experiment [21]; 28.2% in experiment [24]; -1.11% in experiment [26]; 1.28% in [29]. Also, the results for the inhibition in experiment [30] and in [31] were 10.3% and 12.5%, respectively.
